Data on five molecules can be found in patent US20100173835A1, “Peptides for Treatment of Obesity” (Novo Nordisk A/S, priority 2008, published 2010).

The subject of one data set is ad libitum fed rat model. Kind of data set: Assay (I) efficacy testing on appetite, ad libitum fed rat model. It is filed as in vivo. As to the method:
Assay (I)—Experimental protocol for efficacy testing on appetite with MC4 analogues, using an ad libitum fed rat model. TAC:SPRD @mol rats or Wistar rats from M&B Breeding and Research Centre A/S, Denmark are used for the experiments. The rats have a body weight 200-250 g at the start of experiment. The rats arrive at least 10-14 days before start of experiment with a body weight of 180-200 g. Each dose of compound is tested in a group of 8 rats. […] When the animals arrive they are housed individually in a reversed light/dark phase (lights off 7:30 am, lights on 7:30 pm), meaning that lights are off during daytime and on during nighttime. […] During this period the animals are handled at least 3 times. The experiment is conducted in the rats' home cages. Immediately before dosing the rats are randomised to the various treatment groups (n 8) by body weight. They are dosed according to body weight at between 7:00 am and 7:45 am, with a 1-3 mg/kg solution administered intraperitoneally (ip), orally (po) or subcutaneously (sc). The time of dosing is recorded for each group. After dosing, the rats are returned to their home cages, where they then have access to food and water. […] At the end of the experimental session, the animals are euthanised. The individual data are recorded in Microsoft excel sheets. Outliers are excluded after applying the Grubbs statistical evaluation test for outliers, and the result is presented graphically using the GraphPad Prism program.

A further data set deals with T1, human MC4 receptor (Homo sapiens, UniProt P32245).
T1 construct: expressed in transfected cells
Description: Assay (V) Melanocortin Receptor 4 (MC4) binding assay. The settings on record: 125NDP-α-MSH binding, BHK cell membranes; read-out: Assay (V) MC4 [Ki]. The method, boiled down: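 BHK membranes stably expressing human MC4 receptor were incubated with ^125NDP-α-MSH (≈79 pM final) and compound for 2 h at 25 °C, pH 7.0 HEPES buffer with HSA or ovalbumin. Filter-bound radioactivity was gamma counted. Binding curves were fitted by non-linear regression.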

The target in another data set is T2, MC1 receptor (Homo sapiens, UniProt Q01726).
T2 construct: expressed in transfected cells
Description: Assay (IV) Melanocortin Receptor 1 (MC1) binding assay. The settings on record: 125NDP-α-MSH binding, BHK cell membranes; read-out: Assay (IV) MC1 Ki. Put shortly:
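Competition binding used BHK cell membranes stably expressing MC1 (25 μg/ml) with 22 pM final ^125NDP-α-MSH in 25 mM HEPES pH 7.4, CaCl2, MgSO4, EDTA, 0.1% HSA (or ovalbumin), 0.005% Tween 20. After 90 min at 30° C., bound radioligand was filtered and counted, with binding curves fitted by non-linear regression.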

Data set [1] in a line: Solubility data of compounds in water over the pH range. It is filed as physicochemical.

In brackets after ≈: the same amount, converted by molar mass. Where two headings read alike, the source gives them in different places. *1 amine or outer side, *2 acyl side, *3 side chain or, on linkers, in order; H or OH if unused. Where a SMILES comes first, the peptide text is derived from it. Bridges are numbered along the chain shown (N, C = ends). Side-chain parts run from the residue outwards. [ ]: non-standard residue; d: D form. The star is where a group is joined. Palmitoyl(16-(5-tetrazolyl)) = O=C(CCCCCCCCCCCCCCCc1nnn[nH]1)*; C18 diacid = O=C(O)CCCCCCCCCCCCCCCCC(=O)*; C16 diacid = O=C(O)CCCCCCCCCCCCCCC(=O)*; γGlu = O=C(O)[C@H](CCC(=O)[*:2])N[*:1]; Hyp = O=C(O)[C@@H]1C[C@@H](O)CN1; NTA = O=C(O)CN(CC(=O)O)CC(=O)*; Nle = CCCC[C@H](N)C(=O)O; Dap = NC[C@H](N)C(=O)O; AEEA = NCCOCCOCC(=O)O

T2 sequence (Q01726 whole entry): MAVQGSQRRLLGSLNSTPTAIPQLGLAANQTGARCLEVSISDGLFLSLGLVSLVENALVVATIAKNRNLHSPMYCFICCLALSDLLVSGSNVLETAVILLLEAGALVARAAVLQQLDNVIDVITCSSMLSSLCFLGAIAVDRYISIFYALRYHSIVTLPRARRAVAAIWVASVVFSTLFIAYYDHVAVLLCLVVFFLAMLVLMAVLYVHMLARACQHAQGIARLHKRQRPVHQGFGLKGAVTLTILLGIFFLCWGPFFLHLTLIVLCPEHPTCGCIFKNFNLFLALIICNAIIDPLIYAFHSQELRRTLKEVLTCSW
T1 sequence (P32245 whole entry): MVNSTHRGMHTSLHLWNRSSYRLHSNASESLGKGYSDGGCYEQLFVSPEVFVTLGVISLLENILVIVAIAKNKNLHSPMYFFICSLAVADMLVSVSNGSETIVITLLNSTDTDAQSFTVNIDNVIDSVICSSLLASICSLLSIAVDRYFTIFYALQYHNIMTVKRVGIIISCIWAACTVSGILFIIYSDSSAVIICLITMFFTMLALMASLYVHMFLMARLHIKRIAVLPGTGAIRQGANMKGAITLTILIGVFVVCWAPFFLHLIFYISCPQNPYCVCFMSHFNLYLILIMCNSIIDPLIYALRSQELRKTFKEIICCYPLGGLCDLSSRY

On to `CCCC[C@H](NC(=O)[C@H](CCCCNC(=O)CN(CC(=O)O)CC(=O)O)NC(=O)[C@H](Cc1c[nH]cn1)NC(=O)[C@H](CCC(N)=O)NC(=O)[C@H](CO)NC(=O)CNC(=O)COCCOCCNC(=O)CCCCCCCCCCCCCCCc1nnn[nH]1)C(=O)N[C@H]1CCC(=O)NCCCC[C@@H](C(N)=O)NC(=O)[C@H](Cc2c[nH]c3ccccc23)NC(=O)[C@H](CCCNC(=N)N)NC(=O)[C@@H](Cc2ccccc2)NC(=O)[C@@H]2C[C@@H](O)CN2C1=O` [Example 1, (2-{2-[16-(Tetrazol-5-yl)hexadecanoylamino]ethoxy}ethoxy)acetyl-Gly-Ser-Gln-His-Lys(BCMA)-Nle-c[Glu-Hyp-D-Phe-Arg-Trp-Lys]-NH2] ({Palmitoyl(16-(5-tetrazolyl))-AEEA}-GSQHK(NTA)[Nle]E[Hyp][dF]RWK-NH2; lactam 7-12), for which the “Food consumption (% of vehicle) 24 h” value in the data set with ad libitum fed rat model (dosing 3 mg/kg) was 65 % of vehicle. The “Food consumption (% of vehicle) 48 h” value with ad libitum fed rat model (dosing 3 mg/kg) is 72 % of vehicle. The values for the inhibition constant Ki at human MC4 receptor and at MC1 receptor were 0.4 nM and above 10000 nM, respectively.

Regarding `CCCC[C@H](NC(=O)[C@H](CNC(=O)[C@H](Cc1c[nH]cn1)NC(=O)[C@H](CCC(N)=O)NC(=O)[C@H](CO)NC(=O)CNC(=O)COCCOCCNC(=O)CCCCCCCCCCCCCCCc1nnn[nH]1)NC(=O)CN(CC(=O)O)CC(=O)O)C(=O)N[C@H]1CCC(=O)NCCCC[C@@H](C(N)=O)NC(=O)[C@H](Cc2c[nH]c3ccccc23)NC(=O)[C@H](CCCNC(=N)N)NC(=O)[C@@H](Cc2ccccc2)NC(=O)[C@@H]2C[C@@H](O)CN2C1=O` [Example 2, (2-{2-[16-(Tetrazol-5-yl)hexadecanoylamino]ethoxy}ethoxy)acetyl-Gly-Ser-Gln-His-β-Dap(BCMA)-Nle-c[Glu-Hyp-D-Phe-Arg-Trp-Lys]-NH2] ({NTA}-[Dap]([His-Gln-Ser-Gly-AEEA-Palmitoyl(16-(5-tetrazolyl))])[Nle]E[Hyp][dF]RWK-NH2; lactam 3-8), the solubility at 3 days in data set [1] (pH 3.02, pH 3.02, read-out: Conc (solubility in water)) worked out at 320 µM (≈ 670 µg/mL); in data set [1] (pH 3.84, pH 3.84, read-out: Conc (solubility in water)), 421 µM (≈ 881 µg/mL); in data set [1] (pH 4.3, pH 4.3, read-out: Conc (solubility in water)), 216 µM (≈ 452 µg/mL); in data set [1] (pH 4.64, pH 4.64, read-out: Conc (solubility in water)), 49 µM (≈ 103 µg/mL); in data set [1] (pH 5.22, pH 5.22, read-out: Conc (solubility in water)), 13 µM (≈ 27.2 µg/mL); in data set [1] (pH 6.55, pH 6.55, read-out: Conc (solubility in water)), 14 µM (≈ 29.3 µg/mL). In addition, the solubility at 3 days in data set [1] (pH 7.2, pH 7.2, read-out: Conc (solubility in water)) was found to be 122 µM (≈ 255 µg/mL); in data set [1] (pH 7.36, pH 7.36, read-out: Conc (solubility in water)) it was 251 µM (≈ 525 µg/mL); in data set [1] (pH 7.53, pH 7.53, read-out: Conc (solubility in water)), 320 µM (≈ 670 µg/mL); in data set [1] (pH 7.81, pH 7.81, read-out: Conc (solubility in water)) it was 77 µM (≈ 161 µg/mL). The “Food consumption (% of vehicle) 24 h” value in the data set on ad libitum fed rat model (dosing 1 mg/kg) is 60 % of vehicle. Moreover, the “Food consumption (% of vehicle) 48 h” value in the data set on ad libitum fed rat model (dosing 1 mg/kg) is on record as 71 % of vehicle. For the same molecule, the inhibition constant Ki on human MC4 receptor was determined as 3.43 nM; at MC1 receptor it was 5570 nM.

For `CCCC[C@H](NC(=O)[C@H](CCCCNC(=O)CN(CC(=O)O)CC(=O)O)NC(=O)[C@H](CO)NC(=O)[C@H](CCC(N)=O)NC(=O)[C@H](CO)NC(=O)CNC(=O)COCCOCCNC(=O)CCCCCCCCCCCCCCCc1nnn[nH]1)C(=O)N[C@H]1CCC(=O)NCCCC[C@@H](C(N)=O)NC(=O)[C@H](Cc2c[nH]c3ccccc23)NC(=O)[C@H](CCCNC(=N)N)NC(=O)[C@@H](Cc2ccccc2)NC(=O)[C@@H]2C[C@@H](O)CN2C1=O` [Example 15, (2-{2-[16-(Tetrazol-5-yl)hexadecanoylamino]ethoxy}ethoxy)acetyl-Gly-Ser-Gln-Ser-Lys(BCMA)-Nle-c[Glu-Hyp-D-Phe-Arg-Trp-Lys]-NH2] ({Palmitoyl(16-(5-tetrazolyl))-AEEA}-GSQSK(NTA)[Nle]E[Hyp][dF]RWK-NH2; lactam 7-12), in the data set with ad libitum fed rat model (dosing 1 mg/kg), the “Food consumption (% of vehicle) 24 h” value was 74 % of vehicle and the “Food consumption (% of vehicle) 48 h” value is 85 % of vehicle. Moreover, the inhibitory constant (Ki) at human MC4 receptor was determined as 3.15 nM. The Ki at MC1 receptor was above 10000 nM.

In the case of `CCCC[C@H](NC(=O)[C@H](CNC(=O)CN(CC(=O)O)CC(=O)O)NC(=O)[C@H](Cc1c[nH]cn1)NC(=O)[C@H](CCC(N)=O)NC(=O)[C@H](CO)NC(=O)CNC(=O)COCCOCCNC(=O)COCCOCCNC(=O)CC[C@H](NC(=O)CCCCCCCCCCCCCCCCC(=O)O)C(=O)O)C(=O)N[C@H]1CCC(=O)NCCCC[C@@H](C(N)=O)NC(=O)[C@H](Cc2c[nH]c3ccccc23)NC(=O)[C@H](CCCNC(=N)N)NC(=O)[C@@H](Cc2ccccc2)NC(=O)[C@@H]2C[C@@H](O)CN2C1=O` [Example 18, (2-{2-[2-(2-{2-[(S)-4-Carboxy-4-(17-carboxyheptadecanoylamino)butanoylamino]ethoxy}ethoxy)acetylamino]ethoxy}ethoxy)acetyl-Gly-Ser-Gln-His-Dap(BCMA)-Nle-c[Glu-Hyp-D-Phe-Arg-Trp-Lys]-NH2] ({C18 diacid-γGlu-AEEA-AEEA}-GSQH[Dap](NTA)[Nle]E[Hyp][dF]RWK-NH2; lactam 7-12), the solubility at 3 days was 391 µM (≈ 921 µg/mL) in data set [1] (pH 3.7); 25 µM (≈ 58.9 µg/mL) in data set [1] (pH 5.2); 78 µM (≈ 184 µg/mL) in data set [1] (pH 5.96); 249 µM (≈ 587 µg/mL) in data set [1] (pH 6.56); 342 µM (≈ 806 µg/mL) in data set [1] (pH 6.73); 382 µM (≈ 900 µg/mL) in data set [1] (pH 6.95). The solubility at 3 days in data set [1] (pH 7.07) was 485 µM (≈ 1140 µg/mL); in data set [1] (pH 7.51) it was 498 µM (≈ 1170 µg/mL). Besides, the inhibition constant (Ki) on human MC4 receptor was 5.35 nM; on MC1 receptor, above 10000 nM.

Take `CCCC[C@H](NC(=O)[C@H](CCCCNC(=O)CN(CC(=O)O)CC(=O)O)NC(=O)[C@H](CO)NC(=O)[C@H](CCC(N)=O)NC(=O)[C@H](CO)NC(=O)CNC(=O)COCCOCCNC(=O)CCCCCCCCCCCCCCC(=O)O)C(=O)N[C@H]1CCC(=O)NCCCC[C@@H](C(N)=O)NC(=O)[C@H](Cc2c[nH]c3ccccc23)NC(=O)[C@H](CCCNC(=N)N)NC(=O)[C@@H](Cc2ccccc2)NC(=O)[C@@H]2C[C@@H](O)CN2C1=O` [Example 21, {2-[2-(15-Carboxypentadecanoylamino)ethoxy]ethoxy}acetyl-Gly-Ser-Gln-Ser-Lys(BCMA)-Nle-c[Glu-Hyp-D-Phe-Arg-Trp-Lys]-NH2] ({C16 diacid-AEEA}-GSQSK(NTA)[Nle]E[Hyp][dF]RWK-NH2; lactam 7-12): the solubility at 3 days in data set [1] (pH 4.04) came out at 26 µM (≈ 53.2 µg/mL); in data set [1] (pH 4.34), 32 µM (≈ 65.5 µg/mL); in data set [1] (pH 4.74) it was 40 µM (≈ 81.9 µg/mL); in data set [1] (pH 5.21), 58 µM (≈ 119 µg/mL); in data set [1] (pH 5.67), 103 µM (≈ 211 µg/mL); in data set [1] (pH 6.26), 108 µM (≈ 221 µg/mL). Besides, the solubility at 3 days in data set [1] (pH 6.29) is 106 µM (≈ 217 µg/mL); in data set [1] (pH 6.87) it was 117 µM (≈ 239 µg/mL); in data set [1] (pH 7.6) it was 116 µM (≈ 237 µg/mL); in data set [1] (pH 7.61) it was 107 µM (≈ 219 µg/mL). For the same molecule, the results for the inhibition constant Ki on human MC4 receptor and at MC1 receptor were 14.7 nM and above 10000 nM, respectively.

As usually defined, the Ki is the dissociation constant of the complex between target and ligand, obtained from inhibition or displacement. As usually defined, the solubility is how much of the substance goes into solution per volume.
